Measurements taken from patent publication US10183021B2, “sGC stimulators” (Ironwood Pharmaceuticals, Inc., priority 2013, dated 2019).

target: soluble guanylate cyclase (sGC) (Homo sapiens (Human), UniProt Q02108+Q02153); assay: sGC-HEK-cGMP assay, new protocol with DETA-NONOate, LC/MS detection (Example 2C); type: cell-based; details: read-out: Absolute EC50 (uM) - binned
Protocol: Human embryonic kidney cells (HEK293), endogenously expressing soluble guanylate cyclase (sGC), were used to evaluate the activity of test compounds. Compounds stimulating the sGC enzyme should cause an increase in the intracellular concentration of cGMP. HEK 293 cells were seeded in Dulbecco's Modification of Eagle's Medium supplemented with fetal bovine serum (10% final) and penicillin (100 U/mL)/streptomycin (100 μg/mL) in a 50 μL volume at a density of 1.5×10^4 cells/well in a poly-D-lysine coated 384 well flat bottom plate. Cells were incubated overnight at 37° C. in a humidified chamber with 5% CO2. Medium was aspirated and cells were washed with 1× Hank's Buffered Saline Salt Solution (50 μL). Cells were then incubated for 15 minutes at 37° C. with 50 μL of a 0.5 mM 3-isobutyl-1-methylxanthine (IBMX) solution. Test article and Diethylenetriamine NONOate (DETA-NONOate) solutions (x μM concentration for test article solution and 10 μM concentration for DETA-NONOate solution; wherein x is one of the following concentrations);
were then added to the assay mixture and the resulting mixture incubated at 37° C. for 20 minutes. After the 20 minute incubation, the assay mixture was aspirated and 10% acetic acid containing 150 ng/mL+3-cGMP (internal standard for LCMS) (50 μL) was added to the cells. The plate was incubated at 4° C. for 30 minutes in the acetic acid solution to stop the reaction and lyse the cells. The plates were then centrifuged at 1,000 g for 3 minutes at 4° C. and the supernatant transferred to a clean reaction plate for LCMS analysis.
cGMP concentrations were determined from each sample using the LCMS conditions below (Table 5) and calculated standard curve.
Data were normalized to a high control using the following equation: 100*(Sample−Low Control)/(High Control−Low Control), where the low control is the average of 16 samples treated with 1% DMSO, and the high control is the average of 16 samples treated with 30 μM of 1-329 Data were fit using a 4-parameter fit (log(agonist) vs. response—variable slope) using GraphPad Prism Software v.5. n=2 for all compounds. […] Compounds failing to elicit a minimum response of 50% are reported as >30 μM.

soluble guanylate cyclase (sGC), sequence (Q02153 whole entry): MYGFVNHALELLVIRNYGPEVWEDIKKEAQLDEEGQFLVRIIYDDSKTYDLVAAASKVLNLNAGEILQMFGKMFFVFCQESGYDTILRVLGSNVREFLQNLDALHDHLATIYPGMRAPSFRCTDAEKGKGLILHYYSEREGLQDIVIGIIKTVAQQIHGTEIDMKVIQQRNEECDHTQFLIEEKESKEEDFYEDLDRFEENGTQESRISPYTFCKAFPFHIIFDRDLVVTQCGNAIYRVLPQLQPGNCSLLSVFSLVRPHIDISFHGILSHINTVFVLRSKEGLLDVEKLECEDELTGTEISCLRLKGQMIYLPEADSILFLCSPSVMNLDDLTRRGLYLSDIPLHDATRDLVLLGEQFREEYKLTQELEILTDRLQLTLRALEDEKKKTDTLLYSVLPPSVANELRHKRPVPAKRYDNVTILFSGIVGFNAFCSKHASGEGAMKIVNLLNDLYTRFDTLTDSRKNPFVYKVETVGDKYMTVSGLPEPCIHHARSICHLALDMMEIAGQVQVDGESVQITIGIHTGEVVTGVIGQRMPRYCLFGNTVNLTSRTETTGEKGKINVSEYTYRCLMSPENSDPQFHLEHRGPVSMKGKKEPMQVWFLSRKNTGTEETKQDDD
soluble guanylate cyclase (sGC), sequence (Q02108 whole entry): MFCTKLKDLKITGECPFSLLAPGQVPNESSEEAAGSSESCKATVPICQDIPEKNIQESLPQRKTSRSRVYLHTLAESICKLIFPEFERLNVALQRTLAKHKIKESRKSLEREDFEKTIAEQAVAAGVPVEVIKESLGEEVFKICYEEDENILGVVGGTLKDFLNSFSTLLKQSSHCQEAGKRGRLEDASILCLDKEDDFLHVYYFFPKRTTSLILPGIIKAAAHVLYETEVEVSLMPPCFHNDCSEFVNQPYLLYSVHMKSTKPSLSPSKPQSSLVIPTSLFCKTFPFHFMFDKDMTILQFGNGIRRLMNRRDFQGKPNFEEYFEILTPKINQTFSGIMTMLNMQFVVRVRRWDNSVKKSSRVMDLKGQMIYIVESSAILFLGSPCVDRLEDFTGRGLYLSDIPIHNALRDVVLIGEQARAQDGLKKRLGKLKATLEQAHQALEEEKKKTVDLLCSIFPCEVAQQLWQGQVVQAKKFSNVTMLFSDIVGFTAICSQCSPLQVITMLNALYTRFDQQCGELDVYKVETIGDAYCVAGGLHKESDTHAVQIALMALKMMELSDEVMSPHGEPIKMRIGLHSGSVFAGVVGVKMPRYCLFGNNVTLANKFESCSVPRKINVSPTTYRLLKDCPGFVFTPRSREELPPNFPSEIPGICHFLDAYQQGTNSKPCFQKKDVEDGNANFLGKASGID

Structure (SMILES)	EC50
C[C@H]1CCCN(c2nc(-c3cc(-c4ccon4)n(Cc4ccccc4F)n3)ncc2F)[C@H]1C(=O)NS(=O)(=O)C1CC1 [Compound I-331]	0.101 to 1 µM
O[C@@H]1Cc2ccccc2[C@@H]1Nc1nc(-c2cc(-c3ccon3)n(Cc3ccccc3F)n2)ncc1F [Compound I-395]	< 0.1 µM
CC(C)(C(=O)Nc1nc(-c2cc(-c3ccon3)n(Cc3ccccc3F)n2)ncc1F)S(C)(=O)=O [Compound I-582]	> 1 µM
O=C(Nc1nc(-c2cc(-c3ccon3)n(Cc3ccccc3F)n2)ncc1F)N1CCOCC1 [Compound I-477]	> 1 µM
O=C(Nc1ccnc(-c2cc(-c3ccon3)n(Cc3ccccc3F)n2)n1)c1ccco1 [Compound I-560]	> 1 µM
CC(=O)NCC(=O)Nc1ccnc(-c2cc(-c3ccon3)n(Cc3ccccc3F)n2)n1 [Compound I-535]	0.101 to 1 µM
O=C1C(O)CCN1c1nc(-c2cc(-c3ccon3)n(Cc3ccccc3F)n2)ncc1F (stereo not drawn) [Compound I-615]	> 1 µM
C[C@H]1CCCN(c2ccnc(-c3cc(-c4ccon4)n(Cc4ccccc4F)n3)n2)[C@H]1C(=O)O [Compound I-333]	< 0.1 µM
O=C(Nc1nc(-c2cc(-c3ccon3)n(Cc3ccccc3F)n2)ncc1N1CCOCC1)C(O)(C(F)(F)F)C(F)(F)F [Compound I-468]	0.101 to 1 µM
OC(CNc1nc(-c2cc(-c3ccon3)n(CCC(F)(F)F)n2)ncc1F)(C(F)(F)F)C(F)(F)F [Compound I-516]	> 1 µM
OCC1Cn2c(nnc2C(F)(F)F)CN1c1nc(-c2cc(-c3ccon3)n(Cc3ccccc3F)n2)ncc1F (stereo not drawn) [Compound I-633]	< 0.1 µM
[2H]C([2H])(O)C([2H])([2H])Nc1nc(-c2cc(-c3ccon3)n(Cc3ccccc3F)n2)ncc1F [Compound I-495]	< 0.1 µM
COC(=O)NCC(Nc1nc(-c2cc(-c3ccon3)n(Cc3ccccc3F)n2)ncc1F)C(F)(F)F (stereo not drawn) [Compound I-568]	< 0.1 µM
NC(=O)[C@@](O)(CNc1nc(-c2cc(-c3ccon3)n(Cc3ccccc3F)n2)ncc1F)C(F)(F)F [Compound I-530]	0.101 to 1 µM
CC1(C(=O)Nc2ccnc(-c3cc(-c4ccon4)n(Cc4ccccc4F)n3)n2)Cc2ccccc2S1(=O)=O (stereo not drawn) [Compound I-594]	> 1 µM
CCOC(=O)C1(C)C(=O)Nc2nc(-c3cc(-c4ccon4)n(Cc4ccccc4F)n3)nc(N)c21 (stereo not drawn) [Compound I-420]	< 0.1 µM
CCOCC(=O)Nc1ccnc(-c2cc(-c3ccon3)n(Cc3ccccc3F)n2)n1 [Compound I-562]	0.101 to 1 µM
CC(C)(C)OC(=O)N1CC(O)(CNc2nc(-c3cc(-c4ccon4)n(Cc4ccccc4F)n3)ncc2F)C1 [Compound I-351]	< 0.1 µM
CS(=O)(=O)CCNc1nc(-c2cc(-c3ccon3)n(Cc3ccccc3F)n2)ncc1F [Compound I-487]	< 0.1 µM
CC(O)(CNc1nc(-c2cc(-c3ccon3)n(Cc3ccccc3F)n2)ncc1F)C(F)(F)F (stereo not drawn) [Compound I-634]	< 0.1 µM
CC(=O)OC(C(=O)Nc1ccnc(-c2cc(-c3ccon3)n(Cc3ccccc3F)n2)n1)c1ccccc1 (stereo not drawn) [Compound I-565]	0.101 to 1 µM

Structure (SMILES)	EC50
O=C1C=C(O)CC(C(=O)Nc2ccnc(-c3cc(-c4ccon4)n(Cc4ccccc4F)n3)n2)C1 (stereo not drawn) [Compound I-458]	> 1 µM
OC[C@@H]1[C@H](O)CCN1c1nc(-c2cc(-c3ccon3)n(Cc3ccccc3F)n2)ncc1F [Compound I-430]	< 0.1 µM
O=S(=O)(Nc1nc(-c2cc(-c3ccon3)n(Cc3ccccc3F)n2)ncc1F)c1cccnc1 [Compound I-625]	> 1 µM
O=C(Nc1ccnc(-c2cc(-c3ccon3)n(Cc3ccccc3F)n2)n1)[C@H](O)C(F)(F)F [Compound I-326]	0.101 to 1 µM
NC(=O)NCC(=O)Nc1ccnc(-c2cc(-c3ccon3)n(Cc3ccccc3F)n2)n1 [Compound I-584]	> 1 µM
O=C(Nc1ccnc(-c2cc(-c3ccon3)n(Cc3ccccc3F)n2)n1)c1cc[nH]n1 [Compound I-386]	> 1 µM
O=C(Nc1ccnc(-c2cc(-c3ccon3)n(Cc3ccccc3F)n2)n1)c1cnco1 [Compound I-556]	> 1 µM
COc1cc(C(=O)Nc2ccnc(-c3cc(-c4ccon4)n(Cc4ccccc4F)n3)n2)on1 [Compound I-554]	> 1 µM
CCOc1c(Nc2ccnc(-c3cc(-c4ccon4)n(Cc4ccccc4F)n3)n2)c(=O)c1=O [Compound I-327]	> 1 µM
CN(CC(O)(C(F)(F)F)C(F)(F)F)c1nc(-c2cc(-c3ccon3)n(Cc3ccccc3F)n2)ncc1F [Compound I-529]	> 1 µM
O=S(=O)(Nc1nc(-c2cc(-c3ccon3)n(Cc3ccccc3F)n2)ncc1F)c1ccccc1 [Compound I-613]	0.101 to 1 µM
CN(C)S(=O)(=O)NCC(=O)Nc1ccnc(-c2cc(-c3ccon3)n(Cc3ccccc3F)n2)n1 [Compound I-586]	0.101 to 1 µM
O=C(O)CC(Nc1nc(-c2cc(-c3ccon3)n(Cc3ccccc3F)n2)ncc1F)C(F)(F)F (stereo not drawn) [Compound I-418]	0.101 to 1 µM
O=C(CO)Nc1ccnc(-c2cc(-c3ccon3)n(Cc3ccccc3F)n2)n1 [Compound I-499]	> 1 µM
O=S1(=O)Cc2nc(-c3cc(-c4ccon4)n(Cc4ccccc4F)n3)nc(O)c2C1 [Compound I-628]	> 1 µM
O=c1[nH]nc(CNc2nc(-c3cc(-c4ccon4)n(Cc4ccccc4F)n3)ncc2F)[nH]1 [Compound I-441]	0.101 to 1 µM
CN(CC1(C(=O)O)CC1)c1nc(-c2cc(C(N)=O)n(Cc3ccccc3F)n2)ncc1F [Compound I-481]	> 1 µM
CC(=O)OCC(=O)Nc1nc(-c2cc(-c3ccon3)n(Cc3ccccc3F)n2)ncc1F [Compound I-498]	0.101 to 1 µM
OCCNc1nc(-c2cc(-c3ccon3)n(Cc3ccccc3F)n2)ncc1F [Compound I-407]	< 0.1 µM
O=C(CN1C(=O)c2ccccc2C1=O)NCC(=O)Nc1ccnc(-c2cc(-c3ccon3)n(Cc3ccccc3F)n2)n1 [Compound I-602]	> 1 µM
CS(=O)(=O)NCCC(Nc1nc(-c2cc(-c3ccon3)n(Cc3ccccc3F)n2)ncc1F)C(F)(F)F (stereo not drawn) [Compound I-544]	< 0.1 µM

Structure (SMILES)	EC50
COC(=O)N(C)c1cnc(-c2cc(-c3ccon3)n(Cc3ccccc3F)n2)nc1 [Compound I-630]	> 1 µM
NC(=O)CNc1nc(-c2cc(-c3ccon3)n(Cc3ccccc3F)n2)ncc1F [Compound I-417]	0.101 to 1 µM
NS(=O)(=O)CCCC(=O)Nc1ccnc(-c2cc(-c3ccon3)n(Cc3ccccc3F)n2)n1 [Compound I-486]	> 1 µM
CC(CCO)(C(=O)Nc1nc(-c2cc(-c3ccon3)n(Cc3ccccc3F)n2)ncc1F)S(C)(=O)=O (stereo not drawn) [Compound I-527]	0.101 to 1 µM
O=S(=O)(CCNc1nc(-c2cc(-c3ccon3)n(Cc3ccccc3F)n2)ncc1F)NCCO [Compound I-439]	< 0.1 µM
NC(=O)CNc1nc(-c2cc(-c3ccon3)n(CCC(F)(F)F)n2)ncc1F [Compound I-511]	> 1 µM
N#CCC(=O)Nc1ccnc(-c2cc(-c3ccon3)n(Cc3ccccc3F)n2)n1 [Compound I-579]	> 1 µM
O=C(CC(F)(F)F)Nc1ccnc(-c2cc(-c3ccon3)n(Cc3ccccc3F)n2)n1 [Compound I-471]	0.101 to 1 µM
CC(=O)O[C@@H](C(=O)Nc1ccnc(-c2cc(-c3ccon3)n(Cc3ccccc3F)n2)n1)C(F)(F)F [Compound I-475]	0.101 to 1 µM
CC(C)N(C[C@H](O)CO)c1nc(-c2cc(-c3ccon3)n(Cc3ccccc3F)n2)ncc1F [Compound I-323]	0.101 to 1 µM
O=C(NC1CN(c2nc(-c3cc(-c4ccon4)n(Cc4ccccc4F)n3)ncc2F)C1)C1(O)CC1 [Compound I-440]	0.101 to 1 µM
O=C(NC(CO)CO)[C@@H](CO)Nc1nc(-c2cc(-c3ccon3)n(Cc3ccccc3F)n2)ncc1F [Compound I-336]	> 1 µM
OCC(Nc1nc(-c2cc(-c3ccon3)n(Cc3ccccc3F)n2)ncc1F)C(F)(F)F (stereo not drawn) [Compound I-404]	0.101 to 1 µM
Oc1nc(-c2cc(-c3ccon3)n(CCC(F)(F)F)n2)ncc1F [Compound I-507]	> 1 µM
O=C(O)c1cc(-c2ncc(F)c(NCC(O)(C(F)(F)F)C(F)(F)F)n2)nn1Cc1ccccc1F [Compound I-476]	> 1 µM
C[C@H](O)C(=O)Nc1ccnc(-c2cc(-c3ccon3)n(Cc3ccccc3F)n2)n1 [Compound I-576]	0.101 to 1 µM
OCC(CC(F)F)Nc1nc(-c2cc(-c3ccon3)n(Cc3ccccc3F)n2)ncc1F (stereo not drawn) [Compound I-399]	< 0.1 µM
O=S1(=O)CCCN1c1nc(-c2cc(-c3ccon3)n(Cc3ccccc3F)n2)ncc1F [Compound I-503]	0.101 to 1 µM
O=C1CC(C(=O)Nc2ccnc(-c3cc(-c4ccon4)n(Cc4ccccc4F)n3)n2)CN1 (stereo not drawn) [Compound I-464]	0.101 to 1 µM
O=C(Nc1ccnc(-c2cc(-c3ccon3)n(Cc3ccccc3F)n2)n1)C1CC1 [Compound I-558]	0.101 to 1 µM
CCN(CC1(C(=O)O)CC1)c1nc(-c2cc(-c3ccon3)n(Cc3ccccc3F)n2)ncc1F [Compound I-409]	< 0.1 µM
